Experimental data published in patent EP2272817A1, “PAI-1 INHIBITOR” (Institute of Medicinal Molecular Design, Inc., priority 2008, dated 2009).
Like-named read-outs stand apart in the source and are kept apart here.

Experiments:
recombinant human PAI-1 [1] = target: T1, recombinant human PAI-1 (Homo sapiens, UniProt P05121); experiment: biochemical
recombinant human PAI-1 [2] = target: T1, recombinant human PAI-1; experiment: Test Example 4: Human PAI-1 Inhibitory Activity (amount of PAI-1 bound to plate-coated one-chain tPA, ELISA); format: biochemical; design: purchased Molecular Innovations, Inc; details: human PAI-1 bound to tPA, read-out: Inhibition Rate of PAI-1 Activity (%); for inhibition at 0.3 µM: Compound Concentration 0.3µM; for inhibition at 1 µM: Compound Concentration 1µM; for inhibition at 3 µM: Compound Concentration 3µM
Protocol: 100 µl of tPA solution, where one-chain recombinant tPA (hereinafter reffered to as tPA; American diagnostica, inc.) had been diluted with Buffer A to acheive a concentration of 10 µg/ml, was added to each well of a 96-well plate (Nunc Maxisorp), and the plate was incubated for one night at 4 °C to be coated with tPA. Then, after suction of tPA solution from the 96-well plate, the plate was rinsed successively with Buffer A and Buffer B. To Buffer B, solutions of the compound according to the present invention dissolved with DMSO (final DMSO concentration: 0.2 %) and recombinant human PAI-1 (Molecular Innovations, Inc.) were added. The mixtures were blended so that the final concentrations would be 0.1 to 3.0 µM and 50 ng/ml respectively, and were incubated for 15 minutes on ice. These mixed solutions were added to the rinsed 96-well plate at 100 µl/well, and incubated for 60 minutes at room temperature. To prepare a calibration curve, PAI-1 solutions without the compound according to the present invention (solutions where the final concentrations being 100, 50, 25, 12.5, 6.25, 3.13, or 1.56 ng/ml PAI-1) were added at 100 µl/well, and the plate was incubated for 60 minutes at room temperature, as standard.
After incubation, the reaction mixture was removed by suction, and each well was rinsed with Wash Buffer. Next, anti-human PAI-1 monoclonal antibody (PROGEN Inc.) diluted with Buffer C to be 3.0 µg/ml was added to the 96-well plate at 100 µl/well, and the plate was incubated for 1 hour at room temperature. After rinsing each well with Wash Buffer, alkaline phosphatase-labeled goat anti-mouse IgG (H+L) (Jackson ImmunoResearch, Inc.) diluted with Buffer D to be 0.12 µg/ml was added at 100 µl/well, and the plate was incubated for 1 hour at room temperature. After rinsing each well with Wash Buffer, 1.0 mg/ml p-Nitrophenyl Phosphate (SIGMA) was added to the 96-well plate at 100 µl/well to start the reaction. After 30 to 60 minutes, 25 µl of 0.5 N NaOH was added to stop the reaction, and the absorbance was measured at 405 nm using a multiplate reader (GENios; TECAN G.M.B.H.).
Based on the calibration curve prepared from the standard wells, amounts of PAI-1 bound to tPA in the wells that had been treated with the compound according to the present invention were calculated, and the PAI-1 inhibition rates by the compounds according to the present invention were obtained by the following equation. [API-1InhibitionRate(%)] = [1-(amountofPAI-1boundtotPaonthewellbytreatmentwiththecompondaccordingtothepresentinvention)/(amountofPAI-1boundtotPAonthewellbytreatmentwithPAI-1solutionnotincledingthecompondaccordingtotheinvention(solution having the final concentration of 50 nb/ml PAI-1)] × 100 [formula] • <Composition of Buffer A> 0.1 M Tris-HCl, 150 mM NaCl, pH 7.7 • <Composition of Buffer B> 50 mM sodium phosphate, 0.1 M NaCl, 1 mM EDTA, pH 6.6 • <Composition of Buffer C> 50 mM sodium phosphate, 100 mM NaCl, pH 7.4 • <Composition of Buffer D> 0.01 M Tris-HCl, 0.25 M NaCl, pH 8.0 • <Compositon of Wash Buffer> 0.05 % Tween 20, 0.1 % BSA in Buffer A • <Composition of p-Nitrophenyl Phosphate solution> 1 M Diethanolamine 0.5 mM MgCl2, p-Nitrophenyl phosphate, pH 9.8

recombinant rat PAI-1 = target: T2, recombinant rat PAI-1 (Rattus norvegicus, UniProt P20961); experiment: biochemical; details: read-out: Inhibition Rate of PAI-1 Activity (%)
T2 sequence (P20961 24-402): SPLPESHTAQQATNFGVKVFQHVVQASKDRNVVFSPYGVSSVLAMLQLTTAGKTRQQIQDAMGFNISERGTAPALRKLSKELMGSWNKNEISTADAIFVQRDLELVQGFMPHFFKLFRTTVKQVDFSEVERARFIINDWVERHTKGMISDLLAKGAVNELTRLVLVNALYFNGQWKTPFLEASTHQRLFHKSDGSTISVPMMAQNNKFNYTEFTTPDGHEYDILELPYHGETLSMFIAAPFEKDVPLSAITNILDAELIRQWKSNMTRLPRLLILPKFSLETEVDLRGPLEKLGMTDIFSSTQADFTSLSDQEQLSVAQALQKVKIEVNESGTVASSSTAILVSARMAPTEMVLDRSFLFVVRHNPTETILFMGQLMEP

recombinant human PAI-1 [3] = target: T1, recombinant human PAI-1; experiment: Test Example 2: Human PAI-1 Inhibitory Activity (pH 7.4 HEPES buffer, 10 minutes incubation with two-chain tPA); format: biochemical; design: purchased Molecular Innovations, Inc; details: read-out: Inhibition Rate of PAI-1 Activity (%)
Protocol: 0.1 M HEPES, 0.1 M NaCl. 1 mM EDTA. 0.1 % Polyethylene glycol 8,000 (Hampton Research Corporation),
2 mM Dimethyldecylphoshine oxide [Apo-10] (Fluka Corporation)

[4] = read-out: Inhibition Rate of PAI-1 Activity (%), Compound Concentration 5µM
[5] = read-out: Inhibition Rate of PAI-1 Activity (%), Compound Concentration 10µM
[6] = read-out: Inhibition Rate of PAI-1 Activity (%), Compound Concentration 25µM
[7] = read-out: Inhibition Rate of PAI-1 Activity (%)

T1 sequence (P05121 24-402): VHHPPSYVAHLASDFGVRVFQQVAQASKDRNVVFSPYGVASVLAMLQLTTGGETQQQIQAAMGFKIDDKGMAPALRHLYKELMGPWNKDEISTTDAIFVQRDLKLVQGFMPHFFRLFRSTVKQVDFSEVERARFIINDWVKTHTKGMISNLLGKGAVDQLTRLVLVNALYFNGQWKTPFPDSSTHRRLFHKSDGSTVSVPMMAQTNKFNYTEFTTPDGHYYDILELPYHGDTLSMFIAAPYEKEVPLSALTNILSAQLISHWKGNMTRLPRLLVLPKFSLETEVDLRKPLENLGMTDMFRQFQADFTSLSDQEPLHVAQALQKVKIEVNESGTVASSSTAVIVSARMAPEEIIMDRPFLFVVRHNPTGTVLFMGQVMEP

SMILES | inhibition at 5 µM (recombinant human PAI-1 [1]; [4]) [%] | inhibition at 10 µM (recombinant human PAI-1 [1]; [5]) [%] | inhibition at 0.3 µM (recombinant human PAI-1 [2]) [%] | inhibition at 1 µM (recombinant human PAI-1 [2]) [%] | inhibition at 3 µM (recombinant human PAI-1 [2]) [%] | inhibition at 0.3 µM (recombinant rat PAI-1) [%] | inhibition at 1 µM (recombinant rat PAI-1) [%] | inhibition at 3 µM (recombinant rat PAI-1) [%] | inhibition at 10 µM (recombinant rat PAI-1) [%] | inhibition at 0.1 µM (recombinant human PAI-1 [3]) [%] | inhibition at 0.3 µM (recombinant human PAI-1 [3]) [%] | inhibition at 1 µM (recombinant human PAI-1 [3]) [%] | inhibition at 3 µM (recombinant human PAI-1 [3]) [%] | inhibition at 25 µM (recombinant human PAI-1 [1]; [6]) [%] | inhibition at 5 µM (recombinant human PAI-1 [1]; [7]) [%] | inhibition at 10 µM (recombinant human PAI-1 [1]; [7]) [%] | inhibition at 25 µM (recombinant human PAI-1 [1]; [7]) [%]
CCCCCOc1ccc(-c2ccc(OC(F)(F)F)cc2)cc1N(Cc1ccc(C(C)(C)C)cc1)C(=O)C(=O)O [Compound 194] | 84 | 84 | 6 | 22 | 56 | 5 | 39 | 98 | > 99 | 0 | 7 | 63 | 98 |  |  |  | 
COc1cc(OC)c(N(Cc2ccc(C(C)(C)C)cc2)C(=O)C(=O)O)cc1-c1ccc(OC(F)(F)F)cc1 [Compound 190] | 65 | 91 | 0 | 9 | 55 | 0 | 11 | 66 | > 99 | 2 | 3 | 27 | 95 | 91 |  |  | 
CC(C)(Oc1cc(-c2ccc(OC(F)(F)F)cc2)ccc1OCc1ccc(C(C)(C)C)cc1)C(=O)O [Compound 106] | 50 | 85 | 0 | 7 | 17 | 0 | 16 | 85 | > 99 | 0 | 8 | 39 | 97 | 93 |  |  | 
CC(C)(C)c1ccc(COc2ccc(-c3ccc(OC(F)(F)F)cc3)cc2OCC(=O)O)cc1 [Compound 105] | 38 | 76 | 7 | 4 | 33 | 0 | 6 | 74 | 90 | 2 | 3 | 44 | 99 | > 99 |  |  | 
Cc1ccc(N(Cc2ccc(C(C)(C)C)cc2)C(=O)C(=O)O)cc1-c1ccc(OC(F)(F)F)cc1 [Compound 176] | 65 | 94 | 9 | 9 | 29 | 0 | 23 | 71 | > 99 | 0 | 10 | 21 | 96 | 91 |  |  | 
CC(C)(Oc1cccc(-c2ccc(OC(F)(F)F)cc2)c1OCc1ccc(C(C)(C)C)cc1)C(=O)O [Compound 118] | 56 | 82 | 0 | 4 | 46 | 0 | 16 | 77 | 93 | 0 | 6 | 49 | > 99 | 93 |  |  | 
CC(C)(C)c1ccc(Oc2cc(Oc3ccc(OC(F)(F)F)cc3)ccc2CCC(=O)O)cc1 [Compound 90] |  |  | 2 | 9 | 70 | 0 | 0 | 77 | 90 | 4 | 6 | 22 | 97 |  | 42 | 83 | 96
CC(C)(C)c1ccc(Oc2cc(-c3ccc(OC(F)(F)F)cc3)ccc2CCC(=O)O)cc1 [Compound 80] |  |  | 0 | 0 | 29 | 0 | 11 | 71 | 84 | 3 | 11 | 44 | > 99 |  | 43 | 82 | 94
CC(C)(C)c1ccc(Oc2cc(-c3ccc(OC(F)(F)F)cc3)ccc2OCC(=O)O)cc1 [Compound 112] |  |  | 0 | 6 | 36 | 0 | 14 | 75 | 96 | 0 | 19 | 56 | > 99 |  | 34 | 82 | 95
